Test results from patent US8901313B2, “6,5-heterocyclic propargylic alcohol compounds and uses therefor” (Genentech, Inc., priority 2011, dated 2014).

Biological target: T1, nuclear factor-kappa B (NF-kB)-inducing kinase (NIK) (Homo sapiens, UniProt Q99558)
T1 construct: made in house; host or cells: baculovirus-infected insect cells
Assay: NIK Enzyme Inhibition Assay (Transcreener ADP assay)
Assay type: biochemical
Settings: purified NIK 0.2-1 nM, 10 uM ATP, fluorescence polarization, Morrison's quadratic equation; read-out: inhibitory value (Ki) for NIK

T1 sequence (Q99558 whole entry): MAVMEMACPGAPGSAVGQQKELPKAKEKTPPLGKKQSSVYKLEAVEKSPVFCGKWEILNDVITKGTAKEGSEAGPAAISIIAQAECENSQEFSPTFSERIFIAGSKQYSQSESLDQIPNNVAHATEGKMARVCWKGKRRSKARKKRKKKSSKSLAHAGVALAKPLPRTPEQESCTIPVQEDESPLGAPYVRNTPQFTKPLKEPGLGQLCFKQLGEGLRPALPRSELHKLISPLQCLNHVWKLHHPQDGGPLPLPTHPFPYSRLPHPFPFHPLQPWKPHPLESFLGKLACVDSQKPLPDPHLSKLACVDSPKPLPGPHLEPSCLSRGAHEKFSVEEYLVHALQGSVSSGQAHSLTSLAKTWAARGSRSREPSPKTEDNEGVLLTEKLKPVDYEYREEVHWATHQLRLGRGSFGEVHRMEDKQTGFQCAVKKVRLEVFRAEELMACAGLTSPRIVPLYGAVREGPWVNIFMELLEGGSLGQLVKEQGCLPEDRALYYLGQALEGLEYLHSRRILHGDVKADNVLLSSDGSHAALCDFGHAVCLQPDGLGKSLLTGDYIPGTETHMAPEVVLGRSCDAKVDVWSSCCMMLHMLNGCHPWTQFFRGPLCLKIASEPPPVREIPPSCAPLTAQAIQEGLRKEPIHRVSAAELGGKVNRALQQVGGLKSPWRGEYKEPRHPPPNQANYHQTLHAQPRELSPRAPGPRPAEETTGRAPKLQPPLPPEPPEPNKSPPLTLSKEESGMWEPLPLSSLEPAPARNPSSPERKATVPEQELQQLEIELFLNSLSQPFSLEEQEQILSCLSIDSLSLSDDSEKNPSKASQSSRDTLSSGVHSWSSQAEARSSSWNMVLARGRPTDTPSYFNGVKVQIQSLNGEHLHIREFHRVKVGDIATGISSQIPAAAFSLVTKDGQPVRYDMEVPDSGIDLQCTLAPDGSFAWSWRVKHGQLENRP

Cc1cc([C@](C)(O)C#Cc2ccc3nc(C)n(-c4ncnc(N)n4)c3c2)no1 [Example T1.1-5, (2R)-4-[3-(4-amino-1,3,5-triazin-2-yl)-2-methyl-benzimidazol-5-yl]-2-(5-methylisoxazol-3-yl)but-3-yn-2-ol]
Ki: 0.32 nM

Cc1cc(C(C)(O)C#Cc2ccc3c(C(C)(O)C4CC4)nn(-c4ccnc(N)n4)c3c2)no1 (stereo not drawn) [Example T1.1-6, 4-[1-(2-aminopyrimidin-4-yl)-3-(1-cyclopropyl-1-hydroxy-ethyl)indazol-6-yl]-2-(5-methylisoxazol-3-yl)but-3-yn-2-ol]
Ki: 0.32 nM

Cc1nc([C@](C)(O)C#Cc2ccc3c(C(C)(C)O)nn(-c4ccnc(N)n4)c3c2)no1 [Example T1.1-7, (2R)-4-[1-(2-aminopyrimidin-4-yl)-3-(1-hydroxy-1-methyl-ethyl)indazol-6-yl]-2-(5-methyl-1,2,4-oxadiazol-3-yl) but-3-yn-2-ol]
Ki: 0.4 nM

Cc1nc([C@](C)(O)C#Cc2ccc3c(CF)nn(-c4ccnc(N)n4)c3c2)no1 [Example T1.1-8, (2R)-4-[1-(2-aminopyrimidin-4-yl)-3-(fluoromethyl)indazol-6-yl]-2-(5-methyl-1,2,4-oxadiazol-3-yl)but-3-yn-2-ol]
Ki: 0.5 nM

Cc1cc([C@](C)(O)C#Cc2ccc3c(C(C)(C)O)nn(-c4ccnc(N)n4)c3c2)no1 [Example T1.1-9, (2R)-4-[1-(2-aminopyrimidin-4-yl)-3-(1-hydroxy-1-methyl-ethyl)indazol-6-yl]-2-(5-methyl-isoxazol-3-yl)but-3-yn-2-ol]
Ki: 0.5 nM

Cc1cc([C@](C)(O)C#Cc2ccc3c(c2)n(-c2ccnc(N)n2)c(=O)n3C)no1 [Example T1.1-10, 3-(2-aminopyrimidin-4-yl)-5-[(3R)-3-hydroxy-3-(5-methylisoxazol-3-yl)but-1-ynyl]-1-methyl-benzimidazol-2-one]
Ki: 0.5 nM

Cc1nn(-c2ccnc(N)n2)c2cc(C#CC(C)(O)c3c[nH]cn3)ccc12 (stereo not drawn) [Example T1.1-12, 4-[1-(2-aminopyrimidin-4-yl)-3-methyl-indazol-6-yl]-2-(1H-imidazol-4-yl)but-3-yn-2-ol]
Ki: 0.6 nM

Cc1cc(C(C)(O)C#Cc2ccc3nc(OCC(O)CO)n(-c4ccnc(N)n4)c3c2)no1 (stereo not drawn) [Example T1.1-13, 3-[1-(2-aminopyrimidin-4-yl)-6-[3-hydroxy-3-(5-methylisoxazol-3-yl)but-1-ynyl]benzimidazol-2-yl]oxypropane-1,2-diol]
Ki: 0.6 nM

Cc1cc([C@](C)(O)C#Cc2ccc3c(C(=O)N4CCOCC4)nn(-c4ccnc(N)n4)c3c2)no1 [Example T1.1-14, [1-(2-aminopyrimidin-4-yl)-6-[(3R)-3-hydroxy-3-(5-methylisoxazol-3-yl)but-1-ynyl]indazol-3-yl]-morpholino-methanone]
Ki: 0.8 nM

CNC(=O)c1nn(-c2ccnc(N)n2)c2cc(C#C[C@@](C)(O)c3cc(C)on3)ccc12 [Example T1.1-15, 1-(2-aminopyrimidin-4-yl)-6-[(3R)-3-hydroxy-3-(5-methylisoxazol-3-yl)but-1-ynyl]-N-methyl-indazole-3-carboxamide]
Ki: 1 nM

Cc1nn(-c2ccnc(N)n2)c2cc(C#CC3(O)CCN(C)C3=O)ccc12 (stereo not drawn) [Example T1.1-16, 3-[2-[1-(2-aminopyrimidin-4-yl)-3-methyl-indazol-6-yl]ethynyl]-3-hydroxy-1-methyl-pyrrolidin-2-one]
Ki: 1 nM

CCOc1nc2ccc(C#CC(C)(O)c3cc(CO)on3)cc2n1-c1ccnc(N)n1 (stereo not drawn) [Example T1.1-17, 4-[3-(2-aminopyrimidin-4-yl)-2-ethoxy-benzimidazol-5-yl]-2-[5-(hydroxymethyl)isoxdazol-3-yl]but-3-yn-2-ol]
Ki: 1 nM

Cc1nn(-c2ccnc(N)n2)c2cc(C#CC(C)(O)c3cc(CF)on3)ccc12 (stereo not drawn) [Example T1.1-19, 4-[1-(2-aminopyrimidin-4-yl)-3-methyl-indazol-6-yl]-2-[5-(fluoromethyl)isoxazol-3-yl]but-3-yn-2-ol]
Ki: 1 nM

Cc1cc([C@](C)(O)C#Cc2ccc3c(C(N)=O)nn(-c4ccnc(N)n4)c3c2)no1 [Example T1.1-20, 1-(2-aminopyrimidin-4-yl)-6-[(3R)-3-hydroxy-3-(5-methyl-isoxazol-3-yl)but-1-ynyl] indazole-3-carboxamide]
Ki: 1 nM

CC(O)(C#Cc1ccc2[nH]c(=O)n(-c3ccnc(N)n3)c2c1)c1cc(CO)on1 (stereo not drawn) [Example T1.1-21, 3-(2-aminopyrimidin-4-yl)-5-[3-hydroxy-3-[5-(hydroxymethyl)isoxazol-3-yl]but-1-ynyl]-1H-benzimidazol-2-one]
Ki: 1 nM

Cn1c(=O)n(-c2ccnc(N)n2)c2cc(C#CC3(O)CCn4ccnc43)ccc21 (stereo not drawn) [Example T1.1-22, 3-(2-aminopyrimidin-4-yl)-5-[2-(7-hydroxy-5,6-dihydropyrrolo[1,2-a]imidazol-7-yl)ethynyl]-1-methyl-benzimidazol-2-one]
Ki: 1 nM

Cc1nc([C@](C)(O)C#Cc2ccc3c(C(=O)N4CC(O)C4)nn(-c4nc(N)ncc4Cl)c3c2)no1 [Example T1.1-23, [1-(2-amino-5-chloro-pyrimidin-4-yl)-6-[(3R)-3-hydroxy-3-(5-methyl-1,2,4-oxadiazol-3-yl)but-1-ynyl]indazol-3-yl]-(3-hydroxy-azetidin-1-yl)methanone]
Ki: 1 nM

Cc1nc([C@](C)(O)C#Cc2ccc3c(C(=O)N4CCC(F)CC4)nn(-c4ccnc(N)n4)c3c2)no1 [Example T1.1-24, [1-(2-aminopyrimidin-4-yl)-6-[(3R)-3-hydroxy-3-(5-methyl-1,2,4-oxadiazol-3-yl)but-1-ynyl]indazol-3-yl]-(4-fluoro-1-piperidyl)methanone]
Ki: 1 nM

Cc1cc([C@](C)(O)C#Cc2ccc3nc(OC4COC4)n(-c4ccnc(N)n4)c3c2)no1 [Example T1.1-25, (2R)-4-[3-(2-aminopyrimidin-4-yl)-2-(oxetan-3-yloxy)benzimidazol-5-yl]-2-(5-methylisoxazol-3-yl) but-3-yn-2-ol]
Ki: 1 nM

CN(C)C(=O)c1nn(-c2ccnc(N)n2)c2cc(C#CC(C)(O)c3cc(CO)on3)ccc12 (stereo not drawn) [Example T1.1-26, 1-(2-aminopyrimidin-4-yl)-6-[3-hydroxy-3-[5-(hydroxymethyl)isoxazol-3-yl]but-1-ynyl]-N,N-dimethyl-indazole-3-carboxamide]
Ki: 1 nM

Cc1cc(C(C)(O)C#Cc2ccc3nc(OCCO)n(-c4ccnc(N)n4)c3c2)no1 (stereo not drawn) [Example T1.1-27, 4-[3-(2-aminopyrimidin-4-yl)-2-(2-hydroxyethoxy)benzimidazol-5-yl]-2-(5-methylisoxazol-3-yl)but-3-yn-2-ol]
Ki: 2 nM

CCOc1nc2ccc(C#CC3(O)CCn4ccnc43)cc2n1-c1ccnc(N)n1 (stereo not drawn) [Example T1.1-28, 7-[2-[3-(2-aminopyrimidin-4-yl)-2-ethoxy-benzimidazol-5-yl]ethynyl]-5,6-dihydropyrrolo[1,2-a]imidazol-7-ol]
Ki: 2 nM

Cc1cc(C(C)(O)C#Cc2ccc3nc(OCC(F)(F)F)n(-c4ccnc(N)n4)c3c2)no1 (stereo not drawn) [Example T1.1-29, 4-[3-(2-aminopyrimidin-4-yl)-2-(2,2,2-trifluoroethoxy)benzimidazol-5-yl]-2-(5-methylisoxazol-3-yl) but-3-yn-2-ol]
Ki: 2 nM

Cc1nc(C(C)(O)C#Cc2ccc3c(C(=O)N(C)C)nn(-c4ccnc(N)n4)c3c2)no1 (stereo not drawn) [Example T1.1-30, 1-(2-aminopyrimidin-4-yl)-6-[3-hydroxy-3-(5-methyl-1,2,4-oxadiazol-3-yl)but-1-ynyl]-N,N-dimethyl-indazole-3-carboxamide]
Ki: 2 nM
